Data as given in patent US20230138395A1, “PHARMACEUTICAL COMPOSITIONS OF A THERAPEUTIC POLYENE MACROLIDE AND METHODS OF THEIR USE” (priority 2020, published 2023).
Values after ≈ are worked out from the molar mass of the structure shown. Values joined by “and” are separate entries in the source; they are usually repeats but may differ in a detail not shown here. Equal values may be shown once.

Key:
[1] = tested on: Penicillium strains; test: MIC testing (CLSI M38-A2); type: cell-based, Penicillium spp.; conditions: Penicillium
[2] = tested on: individual Aspergillus spp. (Table 15, species not named); test: MFC determination, Table 15; type: cell-based; conditions: Aspergillus sp. of Table 15
[3] = tested on: Fusarium strains (Table 18); test: MFC determination, Table 18; type: cell-based, Fusarium spp.
[4] = tested on: Candida albicans; test: MFC determination; type: cell-based
[5] = tested on: A. fumigatus AF91; test: In vitro activity (MIC) against the infecting strain, Example 17; type: cell-based, Aspergillus fumigatus; conditions: Aspergillus fumigatus, read-out: MIC
Procedure: Minimum Inhibitory Concentration: MIC testing was performed according to the Clinical and Laboratory Standards Institute (CLSI) M27-A3 and M38-A2 standards for the susceptibility testing of yeasts and filamentous fungi, respectively (Cryptococcus isolates were incubated for 72 h). For yeast strains, the incubation temperature and time were 35° C. and 24-48 h, respectively, and the inoculum size was 0.5-2.5×10^3 CFU/ml. For filamentous strains, the inoculum size was 0.4-5×10^4 CFU/ml, and the incubation time was strain and drug specific. RPMI 1640 was the test medium throughout, with the exception of the use of YNB for Cryptococcus. Inhibition endpoints for compound 1A were recorded at 50% and 100% after both 24 h and 48 h incubation; caspofungin results against Aspergillus strains were read as minimum effective concentrations (MEC), the lowest concentration that leads to small, rounded, compact growth as compared to the confluent growth of the control.

[6] = tested on: Fusarium strains; test: MIC testing (CLSI M38-A2), Table 17; type: cell-based, Fusarium spp.; conditions: Fusarium strains (Table 17)
[7] = tested on: Cr. neoformans strains; test: MIC testing (CLSI M27-A3, YNB, 72 h); type: cell-based, Cryptococcus neoformans
[8] = tested on: individual Aspergillus spp. (Table 12, species not named); test: MIC testing (CLSI M38-A2), Table 12; type: cell-based; conditions: Aspergillus sp. of Table 12, caspofungin read as MEC
[9] = tested on: Fusarium strains; test: MFC determination, Table 17; type: cell-based, Fusarium spp.; conditions: Fusarium strains (Table 17)
[10] = tested on: all Aspergillus strains tested; test: MFC determination, summary; type: cell-based
[11] = tested on: C. krusei strains; test: MFC determination; type: cell-based; conditions: C. krusei
[12] = tested on: C. parapsilosis; test: MIC testing (CLSI M27-A3); type: cell-based; set-up: MIC: unit not given beside the values
[13] = tested on: all Candida strains; test: MFC determination, summary; type: cell-based
[14] = tested on: C. albicans SC5314; test: In vitro activity (MIC) against the infecting strain, Example 18; type: cell-based, Candida albicans; conditions: Candida albicans, read-out: MIC
[15] = tested on: individual Aspergillus spp. (Table 15, species not named); test: MIC testing (CLSI M38-A2), Table 15; type: cell-based; conditions: Aspergillus sp. of Table 15, caspofungin read as MEC
[16] = tested on: C. tropicalis; test: MFC determination; type: cell-based
[17] = tested on: all Candida strains; test: MIC testing (CLSI M27-A3), summary; type: cell-based
[18] = tested on: Cr. neoformans strains; test: MFC determination; type: cell-based, Cryptococcus neoformans; conditions: Cr. neoformans
[19] = tested on: Candida albicans SC5314; test: Disseminated candidiasis in immunocompromised murine model (BALB/c mice): tissue fungal burden; type: in vivo; conditions: Experiment I; 4 mg/kg i.v. twice a day, 7 days
[20] = tested on: C. parapsilosis; test: MFC determination; type: cell-based
[21] = tested on: individual Aspergillus spp. (Table 14, species not named); test: MIC testing (CLSI M38-A2), Table 14; type: cell-based; conditions: Aspergillus sp. of Table 14, caspofungin read as MEC
[22] = tested on: individual Aspergillus spp. (Table 13, species not given); test: MFC determination, Table 13; type: cell-based; conditions: Aspergillus sp. of Table 13
[23] = tested on: Candida albicans; test: MIC testing (CLSI M27-A3); type: cell-based; set-up: MIC: unit not given beside the values
[24] = tested on: Penicillium strains; test: MFC determination; type: cell-based, Penicillium spp.
[25] = tested on: individual Aspergillus spp. (Table 13, species not given); test: MIC testing (CLSI M38-A2), Table 13; type: cell-based; conditions: Aspergillus sp. of Table 13, caspofungin read as MEC
[26] = Fluconazole-susceptible C. albicans n = 13, in µg/mL

C[C@@H](c1ncncc1F)[C@](O)(Cn1cncn1)c1ccc(F)cc1F [Voriconazole, voriconazole]
MIC50 ([1]; inhibits 50% of strains): 4 µg/mL (≈ 11.5 µM) | MIC90 ([1]; inhibits 90% of strains): > 32 µg/mL | MFC50 ([2]; kills 50% of strains): > 4 µg/mL | MFC90 ([2]; kills 90% of strains): > 4 µg/mL | MFC50 ([3]; kills 50% of strains): > 16 µg/mL | MFC90 ([3]; kills 90% of strains): > 16 µg/mL | MFC Range [4, 26]: >32 | MFC50 ([4]; Fluconazole-susceptible C. albicans n = 13, kills 50% of strains): > 32 µg/mL | MFC90 ([4]; Fluconazole-susceptible C. albicans n = 13, kills 90% of strains): > 32 µg/mL | MFC ([4]; individual C. albicans strain with elevated MICs to non-polyene comparators (Table 22), listed as Vor): 16 and >32 (2×) | MIC [5]: 1 µg/mL (≈ 2.86 µM) | MIC50 ([6]; inhibits 50% of strains): 16 µg/mL (≈ 45.8 µM) | MIC90 ([6]; inhibits 90% of strains): > 32 µg/mL | MIC Range ([7]; Cr. neoformans strains, 72 h, in µg/mL): <0.06-0.25 | MIC50 ([7]; Cr. neoformans, inhibits 50% of strains): < 0.06 µg/mL | MIC90 ([7]; Cr. neoformans, inhibits 90% of strains): 0.125 µg/mL (≈ 0.358 µM) | MIC Range ([8]; in µg/mL): 0.25-4 | MIC50 ([8]; inhibits 50% of strains): 1 µg/mL (≈ 2.86 µM) | MIC90 ([8]; inhibits 90% of strains): 2 µg/mL (≈ 5.73 µM) | MFC50 ([9]; kills 50% of strains): 32 µg/mL (≈ 91.6 µM) | MFC90 ([9]; kills 90% of strains): > 32 µg/mL | MFC50 ([10]; kills 50% of strains): > 8 µg/mL | MFC90 ([10]; kills 90% of strains): > 8 µg/mL | MFC50 ([11]; kills 50% of strains): > 8 µg/mL | MFC90 ([11]; kills 90% of strains): > 8 µg/mL | MIC50 ([12]; C. parapsilosis, inhibits 50% of strains): < 0.06 µg/mL | MIC90 ([12]; C. parapsilosis, inhibits 90% of strains): 0.06 µg/mL (≈ 0.172 µM) | MIC ([12]; individual C. parapsilosis strain with elevated MICs to non-polyene comparators (Table 22), listed as Vor): 0.06 (2×) and >32 | MFC50 ([13]; kills 50% of strains): > 32 µg/mL | MFC90 ([13]; kills 90% of strains): > 32 µg/mL | MIC [14]: 0.008 µg/mL (≈ 0.0229 µM) | MIC Range ([15]; in µg/mL): 0.25-2 | MIC50 ([15]; inhibits 50% of strains): 0.5 µg/mL (≈ 1.43 µM) | MIC90 ([15]; inhibits 90% of strains): 0.5 µg/mL (≈ 1.43 µM) | MFC Range ([16]; C. tropicalis strains, in µg/mL): >32 | MFC50 ([16]; C. tropicalis, kills 50% of strains): > 32 µg/mL | MFC90 ([16]; C. tropicalis, kills 90% of strains): > 32 µg/mL | MIC50 ([17]; inhibits 50% of strains): 0.06 µg/mL (≈ 0.172 µM) | MIC90 ([17]; inhibits 90% of strains): 1 µg/mL (≈ 2.86 µM) | MFC50 ([18]; kills 50% of strains): > 0.5 µg/mL | MFC90 ([18]; kills 90% of strains): > 0.5 µg/mL | Brain tissue fungal burden, Mean log CFUs ± the standard deviation [19]: 3.42 ± 2.30 log CFUs | Kidney tissue fungal burden, Mean log CFUs ± the standard deviation [19]: 3.45 ± 1.15 log CFUs | MFC50 ([20]; C. parapsilosis, kills 50% of strains): > 32 µg/mL | MFC90 ([20]; C. parapsilosis, kills 90% of strains): > 32 µg/mL | MFC ([20]; individual C. parapsilosis strain with elevated MICs to non-polyene comparators (Table 22), in µg/mL): >32 | MIC Range ([21]; in µg/mL): 0.06-8 | MIC50 ([21]; inhibits 50% of strains): 1 µg/mL (≈ 2.86 µM) | MIC90 ([21]; inhibits 90% of strains): 4 µg/mL (≈ 11.5 µM) | MFC50 ([22]; kills 50% of strains): 8 µg/mL (≈ 22.9 µM) | MFC90 ([22]; kills 90% of strains): > 8 µg/mL | MIC Range [23, 26]: <0.06-0.06 | MIC50 ([23]; Fluconazole-susceptible C. albicans n = 13, inhibits 50% of strains): 0.6 µg/mL (≈ 1.72 µM) | MIC90 ([23]; Fluconazole-susceptible C. albicans n = 13, inhibits 90% of strains): 0.06 µg/mL (≈ 0.172 µM) | MIC ([23]; individual C. albicans strain with elevated MICs to non-polyene comparators (Table 22), listed as Vor, in µg/mL): >0.06 and 0.5 and 32 | MFC50 ([24]; kills 50% of strains): > 32 µg/mL | MFC90 ([24]; kills 90% of strains): > 32 µg/mL | MIC Range ([25]; in µg/mL): 0.25-2 | MIC50 ([25]; inhibits 50% of strains): 0.5 µg/mL (≈ 1.43 µM) | MIC90 ([25]; inhibits 90% of strains): 1 µg/mL (≈ 2.86 µM)
